Data as given in article PMC11070402, “New antiproliferative 3-substituted oxindoles inhibiting EGFR/VEGFR-2 and tubulin polymerization” (Molecular Diversity, 2023).
Read-outs that look alike come from different tables or passages of the source.

Tests used:
[1] = system: 60 human cancer cell lines; assay: NCI one-dose assay against sixty NCI cancer cell lines; assay type: cell-based
Summary of the method: (§1)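 One 10 µM concentration was applied in the NCI in vitro panel of 60 human tumour lines from nine cancer types, and cytotoxicity was measured after 48 h.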

[2] = system: SNB-75 cells (CNS cancer cell line); assay: NCI one-dose assay, SNB-75; assay type: cell-based; details: Homo sapiens; SNB-75 (CNS Cancer), 10 uM single dose; read-out: Growth inhibition %
Summary of the method: as §1

[3] = system: HOP-92 (non-small cell lung cancer cell line); assay: NCI one-dose assay, HOP-92; assay type: cell-based; details: Homo sapiens; HOP-92 (Non-Small Cell Lung Cancer), 10 uM single dose; read-out: Growth inhibition %
Summary of the method: as §1

UO-31 = assay: NCI one-dose assay, UO-31; assay type: cell-based; details: Homo sapiens; UO-31; 10 µM single dose, 48 h incubation; read-out: cell growth inhibition % (GI %)
Summary of the method: as §1

K-562 = assay: NCI one-dose assay, K-562; assay type: cell-based; details: Homo sapiens, K562; K-562; 10 µM single dose, 48 h incubation; read-out: cell growth inhibition % (GI %)
Summary of the method: as §1

MOLT-4 = assay: NCI one-dose assay, MOLT-4; assay type: cell-based; details: Homo sapiens; MOLT-4; 10 µM single dose, 48 h incubation; read-out: cell growth inhibition % (GI %)
Summary of the method: as §1

SR = assay: NCI one-dose assay, SR; assay type: cell-based; details: Homo sapiens; SR; 10 µM single dose, 48 h incubation; read-out: cell growth inhibition % (GI %)
Summary of the method: as §1

A549/ATCC = assay: NCI one-dose assay, A549/ATCC; assay type: cell-based; details: Homo sapiens, 10 µM single dose, 48 h incubation, read-out: cell growth inhibition % (GI %)
Method: (§2) All novel scaffolds 6a–j were carefully selected by the National Cancer Institute (NCI), Bethesda, USA, to elucidate their cytotoxic activity versus 60 human cancer cell lines at 10 µM as a single-dose concentration after a 48 h incubation period.
(§3) National Cancer Institution selected all the synthesized 6a–j (NCI), Bethesda, USA, for in vitro one-dose antitumor assay. The methodology protocol for the NCI anticancer screening was reported in detail elsewhere (http://www.dtp.nci.nih.gov). The anticancer assay was performed in full NCI 60 cell lines extracted from nine tumor cell lines, including leukemia, melanoma, lung, colon, CNS, ovarian, renal, prostate, and breast cancer cell lines.

NCI-H23 = assay: NCI one-dose assay, NCI-H23; assay type: cell-based; details: Homo sapiens; NCI-H23; 10 µM single dose, 48 h incubation; read-out: cell growth inhibition % (GI %)
Method: as §2, §3

SK-MEL-5 = assay: NCI one-dose assay, SK-MEL-5; assay type: cell-based; details: Homo sapiens; SK-MEL-5; 10 µM single dose, 48 h incubation; read-out: cell growth inhibition % (GI %)
Method: as §2, §3

LOX IMVI = assay: NCI one-dose assay, LOX IMVI; assay type: cell-based; details: Homo sapiens; LOX IMVI; 10 µM single dose, 48 h incubation; read-out: cell growth inhibition % (GI %)
Method: as §2, §3

MCF-7 = assay: NCI one-dose assay, MCF-7; assay type: cell-based, human; details: MCF-7, 10 µM single dose, 48 h incubation
Summary of the method: as §1

T-47D = assay: NCI one-dose assay, T-47D; assay type: cell-based; details: Homo sapiens, T47D; T-47D; 10 µM single dose, 48 h incubation; read-out: cell growth inhibition % (GI %)
Summary of the method: as §1

[4] = system: Human Skin Fibroblasts (HSF) cells; assay: Margin of safety: cytotoxicity on human skin fibroblasts (SRB assay); assay type: cell-based; details: Human Skin Fibroblasts, SRB assay, 72 h exposure, read-out: HSF (IC50 ± SD)
Method: Cell viability was assessed via SRB assay. Aliquots of 100 µl cell suspension (5 × 10^3 cells) were in 96-well plates and incubated in a complete media for 24 h. […] After 72 h of drug exposure, cells were fixed by replacing media with 150 µl of 10% TCA and incubated at 4 °C for 1 h. The TCA solution was removed, and the cells were washed 5 times with distilled water. Aliquots of […] SRB solution (0.4 w/v) were added and incubated in a dark place at room temperature for 10 min. Plates were washed 3 times with 1% acetic acid and allowed to air-dry overnight. Then, 150 µl of TRIS (10 mM) was added to dissolve the protein-bound SRB stain; the absorbance was measured at 540 nm using a BMG LAB TECH®-FLUO star Omega microplate reader (Ortenberg, Germany).

[5] = system: MCF-7 (human breast cancer); assay: Cytotoxicity versus MCF-7 cell line (MTT assay); details: MCF7, read-out: MCF-7 (IC50 ± SD, uM)
Method: IC50 values were recorded using the Boltzman sigmoidal concentration–response curve equation using the nonlinear regression fitting models by GraphPad, Prism version 5 (GraphPad Software Inc., La Jolla, CA). MTT assay for MCF-7 cell lines. Cell line cells were obtained from American Type Culture Collection. Cells were cultured using DMEM media (Invitrogen/Life Technologies) supplemented with 10% FBS (Hyclone), 10 ug/ml of insulin (Sigma), and 1% penicillin–streptomycin. All the other chemicals and reagents were purchased from Sigma or Invitrogen. Cells were seeded in plates (cells density 1.2–1.8 × 10,000 cells/well) in a volume of 100 μl full-growth medium + 100 μl of the tested scaffold per well in a 96-well plate for 24 h before the application of the MTT assay protocol as reported, supplementary information.

O=C1Nc2ccccc2C1=Cc1ccc(OCC(=O)c2ccc(Br)cc2)cc1 [Compound 6f, 3-{4-[2-(4-Bromophenyl)-2-oxoethoxy]benzylidene}indolin-2-one]
inhibition at 10 µM ([1]; 786-0 (Renal Cancer), 10 uM single dose, read-out: Growth inhibition %): 10.2%
inhibition at 10 µM ([1]; ACHN (Renal Cancer), 10 uM single dose, read-out: Growth inhibition %): 30%
inhibition at 10 µM ([1]; BT-549 (Breast Cancer), 10 uM single dose, read-out: Growth inhibition %): 43.4%
inhibition at 10 µM ([1]; CAKI-1 (Renal Cancer), 10 uM single dose, read-out: Growth inhibition %): 32.2%
inhibition at 10 µM ([1]; CCRF-CEM (Leukemia), 10 uM single dose, read-out: Growth inhibition %): 41.8%
inhibition at 10 µM ([1]; COLO 205 (Colon Cancer), 10 uM single dose, read-out: Growth inhibition %): 34.1%
inhibition at 10 µM ([1]; DU-145 (Prostate Cancer), 10 uM single dose, read-out: Growth inhibition %): 14.4%
inhibition at 10 µM ([1]; EKVX (Non-Small Cell Lung Cancer), 10 uM single dose, read-out: Growth inhibition %): 34.4%
inhibition at 10 µM ([1]; HCC-2998 (Colon Cancer), 10 uM single dose, read-out: Growth inhibition %): 14.9%
inhibition at 10 µM ([1]; HCT-15 (Colon Cancer), 10 uM single dose, read-out: Growth inhibition %): 54.6%
inhibition at 10 µM ([1]; HCT-116 (Colon Cancer), 10 uM single dose, read-out: Growth inhibition %): 44.6%
inhibition at 10 µM ([1]; HL-60(TB) (Leukemia), 10 uM single dose, read-out: Growth inhibition %): 59.6%
inhibition at 10 µM ([1]; HS 578T (Breast Cancer), 10 uM single dose, read-out: Growth inhibition %): 15.6%
inhibition at 10 µM ([1]; HT-29, HT29 (Colon Cancer), 10 uM single dose, read-out: Growth inhibition %): 17.2%
inhibition at 10 µM ([1]; IGROV-1, IGROV1 (Ovarian Cancer), 10 uM single dose, read-out: Growth inhibition %): 21.7%
inhibition at 10 µM ([1]; KM12 (Colon Cancer), 10 uM single dose, read-out: Growth inhibition %): 22.7%
inhibition at 10 µM ([1]; M14 (Melanoma), 10 uM single dose, read-out: Growth inhibition %): 26.9%
inhibition at 10 µM ([1]; MALME-3M (Melanoma), 10 uM single dose, read-out: Growth inhibition %): 19%
inhibition at 10 µM ([1]; MDA-MB-231, read-out: Growth inhibition %): 17.8%
inhibition at 10 µM ([1]; MDA-MB-435 (Melanoma), 10 uM single dose, read-out: Growth inhibition %): 29.5%
inhibition at 10 µM ([1]; MDA-MB-468 (Breast Cancer), 10 uM single dose, read-out: Growth inhibition %): 47.6%
inhibition at 10 µM ([1]; NCI-H226 (Non-Small Cell Lung Cancer), 10 uM single dose, read-out: Growth inhibition %): 28.4%
inhibition at 10 µM ([1]; NCI-H322M (Non-Small Cell Lung Cancer), 10 uM single dose, read-out: Growth inhibition %): 12.5%
inhibition at 10 µM ([1]; NCI-H460 (Non-Small Cell Lung Cancer), 10 uM single dose, read-out: Growth inhibition %): 41.5%
inhibition at 10 µM ([1]; NCI-H522 (Non-Small Cell Lung Cancer), 10 uM single dose, read-out: Growth inhibition %): 38.6%
inhibition at 10 µM ([1]; OVCAR-3 (Ovarian Cancer), 10 uM single dose, read-out: Growth inhibition %): 22.5%
inhibition at 10 µM ([1]; OVCAR-4 (Ovarian Cancer), 10 uM single dose, read-out: Growth inhibition %): 41.8%
inhibition at 10 µM ([1]; OVCAR-8 (Ovarian Cancer), 10 uM single dose, read-out: Growth inhibition %): 30.4%
inhibition at 10 µM ([1]; PC-3 (Prostate Cancer), 10 uM single dose, read-out: Growth inhibition %): 37.6%
inhibition at 10 µM ([1]; RPMI-8226 (Leukemia), 10 uM single dose, read-out: Growth inhibition %): 50.8%
inhibition at 10 µM ([1]; RXF 393 (Renal Cancer), 10 uM single dose, read-out: Growth inhibition %): 32.4%
inhibition at 10 µM ([1]; SF-295 (CNS Cancer), 10 uM single dose, read-out: Growth inhibition %): 41.4%
inhibition at 10 µM ([1]; SF-539 (CNS Cancer), 10 uM single dose, read-out: Growth inhibition %): 18.5%
inhibition at 10 µM ([1]; SK-MEL-2 (Melanoma), 10 uM single dose, read-out: Growth inhibition %): 27.6%
inhibition at 10 µM ([1]; SK-MEL-28 (Melanoma), 10 uM single dose, read-out: Growth inhibition %): 19.9%
inhibition at 10 µM ([1]; SN12C (Renal Cancer), 10 uM single dose, read-out: Growth inhibition %): 37.3%
inhibition at 10 µM ([1]; SNB-19 (CNS Cancer), 10 uM single dose, read-out: Growth inhibition %): 20.4%
inhibition at 10 µM ([1]; SW-620 (Colon Cancer), 10 uM single dose, read-out: Growth inhibition %): 21.9%
inhibition at 10 µM ([1]; U-251, U251 (CNS Cancer), 10 uM single dose, read-out: Growth inhibition %): 28.5%
inhibition at 10 µM ([1]; UACC-62 (Melanoma), 10 uM single dose, read-out: Growth inhibition %): 47.4%
inhibition at 10 µM ([1]; UACC-257 (Melanoma), 10 uM single dose, read-out: Growth inhibition %): 26.4%
inhibition at 10 µM [2]: 20.4%
inhibition at 10 µM [3]: 24.5%
inhibition at 10 µM (UO-31): 51.5%
inhibition at 10 µM (K-562): 72.2%
inhibition at 10 µM (MOLT-4): 91.5%
inhibition at 10 µM (SR): 63.7%
inhibition at 10 µM (A549/ATCC): 41.6%
inhibition at 10 µM (NCI-H23): 49.1%
inhibition at 10 µM (SK-MEL-5): 71.1%
inhibition at 10 µM (LOX IMVI): 71.1%
inhibition at 10 µM (MCF-7; Homo sapiens, MCF7, 48 h, read-out: cell growth inhibition % (GI %)): 72.6%
cell growth inhibition % (GI %) (MCF-7): 70.30%
inhibition at 10 µM (T-47D): 53%
IC50 ([4]; Homo sapiens, HSF, 72 h): 19.4 µM
IC50 [4]: 19.4 ± 1.17 µM
IC50 [5]: 14.8 ± 0.47 µM
